The nature of data set [1]: iTLC and HPLC characterization of DFO complexes, 68Ga. The format is physicochemical. The conditions noted are these: for DFO complex, pH 3 / DFO complex, pH 5.5: 68Ga, 37° C. The method, then: (§1) Extensive HPLC and thin-layer chromatography (TLC) analysis of multiple radiometals with pyochelin or DFO were performed. Radiometals were combined with siderophore at ratio of 20 uCi/ug in 50 uL buffer. Buffers consisted of sodium acetate (NaOAc), ammonium acetate, and HEPES at pH 3.5, 5.5, and 7 respectively. Complexation was heated to either 37° C. for one hour or 50° C. for one hour. Gallium-68 was prepared by concentrating the generator eluate in 0.1 M HCl onto a 30 mg Strata-XC cartridge, which was then air dried and the gallium eluted with three 150 uL aliquots of acetone. Reactions with gallium-68 were then carried out by adding 5 μg of siderophore with 50 uL of pH 3.5 sodium acetate and ˜250 uCi of gallium-68 radiometal and incubated at 37° C. for 20 minutes. Reaction products were placed on HPLC at 5-50% acetonitrile for 15 minutes using a kinetex evo C-18 column.

The nature of data set [2]: iTLC and HPLC characterization of DFO complexes, 64Cu. Conditions: 37° C. The format is physicochemical. The protocol:
as §1

A short description of data set [3]: Preliminary screen of Cu-64 with different siderophores (complexation). The format is physicochemical. The conditions noted are these: for Cu-64 screen with siderophore, pH 3 / Cu-64 screen with siderophore, pH 5.5 / Cu-64 screen with siderophore, pH 7.0 / Cu-64 screen with siderophore, pH 9: 64Cu. The protocol: Preliminary in vitro data evaluating multiple siderophores with multiple radiometals to understand general binding characteristics was performed. To further evaluate Cu-64 binding affinity with Pch for in vivo applications, in vitro HPLC stability studies were performed to determine the percentage of bound Cu-64-Pch after incubation in serum. Samples were incubated for time points 0, 0.5, 1, 6, and 24. After incubation, samples were prepared for HPLC analysis by adding 500 uL of ammonium acetate with ethanol extraction solvent, spun at 12,000 RPM for 5 minutes. The top 2⁄3 of the supernatant was removed for HPLC analysis. After HPLC stability analysis, multiple HPLC purity studies were performed to determine the relative amount of free copper compared to Pch-bound copper. To prepare for purity analysis, 150 uCi of Cu-64 was incubated for 1 hour with varying amounts of 1 mg/mL pyochelin ranging from 0.5 to 10 uL, with ammonium acetate being added to reach a maximum volume of 350 uL. Additional purity studies were conducted using 150 uCi of Cu-64 along with 10 uL of 1 mg/mL pyochelin and ammonium acetate, but involved varying incubation periods consisting of 10, 20, 30, 45, and 60 minutes at 37° C. Lastly, UV chromatograms of Pch were generated using varying concentrations of Pch in ammonium acetate, consisting of 25, 50, 100, and 200 uL of Pch with ammonium acetate being added to reach 350 uL total volume. All HPLC analysis was conducted using 5-95% acetonitrile gradient over 10 minutes, with a flow rate of 1 mL/min using an Agilent Poroshell 120 EC-C18 column. Extensive HPLC and thin-layer chromatography (TLC) analysis of multiple radiometals with pyochelin or DFO were performed. Radiometals were combined with siderophore at ratio of 20 uCi/ug in 50 uL buffer. Buffers consisted of sodium acetate (NaOAc), ammonium acetate, and HEPES at pH 3.5, 5.5, and 7 respectively. […] Gallium-68 was prepared by concentrating the generator eluate in 0.1 M HCl onto a 30 mg Strata-XC cartridge, which was then air dried and the gallium eluted with three 150 uL aliquots of acetone. Reactions with gallium-68 were then carried out by adding 5 μg of siderophore with 50 uL of pH 3.5 sodium acetate and 250 uCi of gallium-68 radiometal and incubated at 37° C. for 20 minutes. Reaction products were placed on HPLC at 5-50% acetonitrile for 15 minutes using a […] evo C-18 column.

A short description of data set [4]: TLC analysis of pyochelin complexation with lead-203. The format is physicochemical. The protocol:
(§2) All radiometals-pyochelin combinations were screened at pH 3.5, 5.5, and 7 at both 37° C. and 50° C. […] (FIG. 4F).
as §1

Data set [5] is described as follows: TLC analysis of pyochelin complexation with zirconium-89. The format is physicochemical. The protocol:
as §2, §1

A short description of data set [6]: TLC analysis of pyochelin complexation with titanium-45. The format is physicochemical. The method, then: as §2, §1
A short description of data set [7]: TLC analysis of pyochelin complexation with manganese-52. The format is physicochemical. The method, then: as §2, §1
A short description of data set [8]: TLC analysis of pyochelin complexation with gallium-68. The format is physicochemical. The protocol:
as §2, §1

Data set [9] can be described thus: HPLC stability of Cu-64-Pch after incubation in serum. The format is in vitro ADME. Conditions: after 24 hours of serum incubation. The protocol: Preliminary in vitro data evaluating multiple siderophores with multiple radiometals to understand general binding characteristics was performed. To further evaluate Cu-64 binding affinity with Pch for in vivo applications, in vitro HPLC stability studies were performed to determine the percentage of bound Cu-64-Pch after incubation in serum. Samples were incubated for time points 0, 0.5, 1, 6, and 24. After incubation, samples were prepared for HPLC analysis by adding ˜500 uL of ammonium acetate with ethanol extraction solvent, spun at 12,000 RPM for 5 minutes. The top ⅔ of the supernatant was removed for HPLC analysis. After HPLC stability analysis, multiple HPLC purity studies were performed to determine the relative amount of free copper compared to Pch-bound copper. To prepare for purity analysis, ˜150 uCi of Cu-64 was incubated for 1 hour with varying amounts of 1 mg/mL pyochelin ranging from 0.5 to 10 uL, with ammonium acetate being added to reach a maximum volume of 350 uL. Additional purity studies were conducted using ˜150 uCi of Cu-64 along with 10 uL of 1 mg/mL pyochelin and ammonium acetate, but involved varying incubation periods consisting of 10, 20, 30, 45, and 60 minutes at 37° C. […]

For data set [10], the system named is fptA expressing P. aeruginosa. The experiment in a line: PET/CT imaging and lung biodistribution of Cu-64 Pch in infected mice, P. aeruginosa. The data set is classed as in vivo, Pseudomonas aeruginosa. The protocol: (§3) In vivo studies were performed using Balb/c mice. On day 1, Pseudomonas aeruginosa (PA01), Klebsiella pneumoniae, E. coli Nissle, E. coli UTI89, or Staphylococcus aureus bacterial concentrations of ˜3×10^6 CFU/mL were prepared via centrifugation at 7 k RPM and washed three times with 1 mL of phosphate-buffered saline (PBS). 100 uL of bacterial concentrates were administered to groups of 3 mice intra-nasally, along with one group receiving 0.9% saline. After 24 hours, Cu-64 Pch was prepared and given retro-orbitally at a dose of ˜150 uCi per mouse. 48 hours after bacterial administration, the mice underwent PET/CT imaging. Immediately after imaging, the mice were sacked, and the lungs harvested for radioactive biodistribution measurements.
(§4) An additional in vivo study was performed using only PA01 bacteria. In this example, the bacteria were administered via intra-tracheal route, rather than intra-nasal. This route of administration is limited to 20 uL. Similarly, Ga-68 pyochelin studies were performed as follows: on day 1, PA01 was grown overnight to a concentration of ˜3×10^6 CFU/mL. After overnight incubation, the bacteria was washed with PBS and 100 uL was administered intranasally to each mouse. 5 hours after bacterial administration, Ga-68 was prepared and given retro-orbitally at a dose of ˜150-200uCi per mouse. 1 hour after Ga-68 injection, the mice were imaged via PET/CT, followed by euthanasia for biodistribution of the lungs.

Data set [11] concerns non-fptA expressing organisms. The experiment in a line: PET/CT imaging and lung biodistribution of Cu-64 Pch in infected mice, non-fptA organisms. The format is in vivo. The protocol: as §3
Data set [12] in a line: Radio chromatogram stability of gallium bound Pch in serum. The format is in vitro ADME.
The test system of data set [13] is fptA expressing P. aeruginosa. In words: PET/CT imaging and ex vivo biodistribution of Ga-68 pyochelin, P. aeruginosa. Conditions: mice, bacteria intranasally, probe retro-orbitally ~150-200uCi, PET/CT 1 hour after injection. The format is in vivo, Pseudomonas aeruginosa. The method, then:
as §4

Data set [14] concerns non-fptA expressing organisms. The experiment in a line: PET/CT imaging and ex vivo biodistribution of Ga-68 pyochelin, non-fptA organisms. Conditions: mice with non-fptA expressing organisms. The data set is classed as in vivo.
[15] abbreviates: pH 3.5, 5.5, 7, 37° C. and 50° C.

On to `CC(=O)N(O)CCCCCNC(=O)CCC(=O)N(O)CCCCCNC(=O)CCC(=O)N(O)CCCCCN` [DFO, desferrioxamine B], for which the “DFO complex, pH 3” value in [1] (20 mins) is recorded as 93; in data set [1] (60 mins), 92; in [2] (20 mins) it was 1; in data set [2] (60 mins), 1. The “DFO complex, pH 5.5” value was 62 in data set [1] (20 mins), 98 in data set [1] (60 mins), 4 in [2] (20 mins) and 1 in [2] (60 mins). Besides, the “complexation between Ga-68 and DFO, in words” value in data set [1] (pH 3 and pH 5.5, 37° C.) is on record as “high complexation”.

As to `CN1[C@@H]([C@H]2CSC(c3ccccc3O)=N2)SC[C@H]1C(=O)O` [PcH, pyochelin], the “Cu-64 screen with siderophore, pH 3” value is listed as 0 in data set [3] (37° C., 60 mins) and 0 in data set [3] (90° C., 30 mins). Further, the “Cu-64 screen with siderophore, pH 5.5” value in data set [3] (37° C., 60 mins) worked out at 85; in [3] (90° C., 30 mins), 0. Moreover, the “Cu-64 screen with siderophore, pH 7.0” value in data set [3] (37° C., 60 mins) was 95; in data set [3] (90° C., 30 mins), 0. Besides, the “Cu-64 screen with siderophore, pH 9” value in data set [3] (37° C., 60 mins) amounted to 0; in data set [3] (90° C., 30 mins), 0. In data set [3] (in vitro studies), the “complexation of pyochelin with copper-64, in words” value is recorded as “complexes extremely well”. In [3] (pH 5.5 and pH 7, 37° C.), the “binding affinity between Cu-64 and PcH” value is “high binding affinity”. In addition, the “pH 3.5 (% complex)” value in data set [4] (Lead-203, pH 3.5, 37° C.) is 3 % complex; in [5] (Zirconium-89, pH 3.5, 37° C.) it was 22.8 % complex; in data set [6] (Titanium-45, pH 3.5, 37° C.), 33.1 % complex; in data set [7] (Manganese-52, pH 3.5, 37° C.) it was 1.2 % complex; in data set [8] (Gallium-68, pH 3.5, 37° C.), 100 % complex. The “pH 5.5 (% complex)” value in data set [4] (Lead-203, pH 5.5, 37° C.) worked out at 3 % complex; in [5] (Zirconium-89, pH 5.5, 37° C.), 73.7 % complex; in data set [6] (Titanium-45, pH 5.5, 37° C.) it was 72.3 % complex; in data set [7] (Manganese-52, pH 5.5, 37° C.) it was 2.2 % complex; in [8] (Gallium-68, pH 5.5, 37° C.), 100 % complex. Moreover, the “pH 7 (% complex)” value in [4] (Lead-203, pH 7, 37° C.) is 2 % complex; in data set [5] (Zirconium-89, pH 7, 37° C.), 75.6 % complex; in data set [6] (Titanium-45, pH 7, 37° C.), 60 % complex; in data set [7] (Manganese-52, pH 7, 37° C.) it was 1.1 % complex; in [8] (Gallium-68, pH 7, 37° C.), 100 % complex. In addition, the “association between pyochelin and lead-203 (TLC)” value in [4] (setting [15]) was “mostly poor association”. Besides, the “association between pyochelin and zirconium-89 (TLC)” value in data set [5] (setting [15]) is recorded as “mostly poor association”. Besides, the “association between pyochelin and titanium-45 (TLC)” value in data set [6] (setting [15]) is given as “mostly poor association”. Also, the “association between pyochelin and manganese-52 (TLC)” value in data set [7] (setting [15]) is reported as “mostly poor association”. For the same compound, the “complexation of gallium-68 with pyochelin” value in data set [8] (all three pH conditions (3.5, 5.5, 7) at 37° C.) amounted to 100%.

Regarding copper-64 bound pyochelin [Cu-64-Pch], the “stability after serum incubation (HPLC)” value in [9] is recorded as not below 91%. The “uptake of probe in the lungs (imaging and radioactive biodistribution)” value is “increased uptake” in data set [10] (Balb/c mice, bacteria intra-nasally, probe retro-orbitally ~150 uCi, PET/CT 48 hours after bacteria) and “limited uptake” in [11] (Balb/c mice infected with non-fptA expressing organisms, probe retro-orbitally ~150 uCi). In addition, the “transport of probe into bacterial cells (in vivo images)” value was “transported into the P. aeruginosa cells” in data set [10] (P. aeruginosa cells) and “not transported” in [11] (bacterial cells that don't express the fptA receptor). Moreover, in data set [10] (P. aeruginosa containing lungs), the “biodistribution levels in lungs” value was “elevated levels”. The “biodistribution and probe accumulation, intra-tracheal compared to intra-nasal bacterial administration” value in [10] (PA01 administered intra-tracheally vs intra-nasally) was “significant increase in biodistribution and probe accumulation”.

Turning to gallium-68 bound pyochelin [Ga-68 Pch], the “stability in serum (radio chromatogram)” value in data set [12] is “high stability in serum”. Further, the “uptake of probe in the lungs (in vivo imaging and ex vivo biodistribution)” value in [13] is reported as “increased uptake”; in [14], “limited uptake”.

The values above are taken from patent publication US20250228984A1, “Metallophore-Radionuclide Complex as Nuclear Imaging Contrast Agents” (priority 2024, published 2025).
